Experimental data taken from ChEMBL document CHEMBL4715892, “Synthesis of novel quinoxaline-alkynyl derivatives and their anti-Mycobacterium tuberculosis activity” (Bioorg Med Chem Lett, 2021).

Legend:
RAW264.7 = assay: Cytotoxicity against mouse RAW264.7 cells assessed as reduction in cell viability up to 24 hrs by MTT assay; assay type: cell-based; details: RAW264.7, 24 h
[1] = tested on: Mycobacterium tuberculosis; assay: Antitubercular activity against Mycobacterium tuberculosis H37Rv assessed as reduction in microbial growth after 7 to 14 days by broth dilution method; assay type: functional; details: time 7-14 day
[2] = Selectivity index ratio of IC50 for cytotoxicity against mouse RAW264.7 cells to MIC90 for antitubercular activity against Mycobacterium tuberculosis H37Rv; assay type: toxicity, cell-based; details: read-out: Selectivity Index

Row | Structure (SMILES) | IC50 (RAW264.7) [µM] | MIC90 [1] [µM] | selectivity ratio [2]
1 | O=C(OCC#Cc1cnc2cc(Cl)ccc2n1)c1cccs1 | 11.3 | 11.2 | 1
2 | O=C(OCC#Cc1cnc2cc([N+](=O)[O-])ccc2n1)c1cccs1 | 19.9 | 2.74 | 7.24
3 | CC(=O)OCC#Cc1cnc2cc([N+](=O)[O-])ccc2n1 | 13.2 | 1.8 | 7.3
4 | OCC#Cc1cnc2cc(Cl)ccc2n1 | 35.3 | 15.9 | 2.22
5 | O=C(OCC#Cc1cnc2ccccc2n1)c1ccccc1 | 55.6 | 16.2 | 3.4
6 | O=CC#Cc1cnc2ccccc2n1 | 316 | 4.55 | 69.5
7 | CS(=O)(=O)OCC#Cc1cnc2cc(Cl)ccc2n1 | – | 54.5 | –
8 | CC(=O)OCC#Cc1cnc2cc(Cl)ccc2n1 | 20.2 | 16.5 | 1.22
9 | O=C(OCC#Cc1cnc2cc([N+](=O)[O-])ccc2n1)c1ccccc1 | 248 | 93.8 | 2.6
10 | O=C(OCC#Cc1cnc2ccccc2n1)c1cccs1 | 39 | 27 | 1.44
11 | CC(=O)OCC#Cc1cnc2ccccc2n1 | 47.7 | 18.1 | 2.64
12 | CS(=O)(=O)OCC#Cc1cnc2ccccc2n1 | 36.8 | 6.47 | 5.7
13 | O=C(OCC#Cc1cnc2cc(Cl)ccc2n1)c1ccccc1 | 82.3 | 57.6 | 1.43
14 | O=CC#Cc1cnc2cc(Cl)ccc2n1 | 4.6 | 1.13 | 4.1
15 | O=[N+]([O-])c1ccc2nc(C#CCO)cnc2c1 | 31.2 | 4.26 | 7.3
16 | CS(=O)(=O)OCC#Cc1cnc2cc([N+](=O)[O-])ccc2n1 | 13.5 | 1.59 | 8.5
17 | OCC#Cc1cnc2ccccc2n1 | 43.7 | 52.7 | 0.83
18 | CO[C@H]1/C=C/O[C@@]2(C)Oc3c(C)c(O)c4c(O)c(c(/C=N/N5CCN(C)CC5)c(O)c4c3C2=O)NC(=O)/C(C)=C\C=C\[C@H](C)[C@H](O)[C@@H](C)[C@@H](O)[C@@H](C)[C@H](OC(C)=O)[C@@H]1C [RIFAMPIN] | – | 0.01 | –
